{
  "source": "BindingDB's records for doi:10.1074/jbc.M113.480517",
  "about": "(University of Iowa, 2013)",
  "test_in_all_cases": "DNA Methylation Assay",
  "conditions_in_all_cases": "pH 7.5",
  "key": {"[1]": {"molecular_target": "Orphan methyltransferase M.SssI (Spiroplasma monobiae (strain ATCC 33825 / MQ-1), UniProt P15840)", "sequence (P15840 whole entry)": "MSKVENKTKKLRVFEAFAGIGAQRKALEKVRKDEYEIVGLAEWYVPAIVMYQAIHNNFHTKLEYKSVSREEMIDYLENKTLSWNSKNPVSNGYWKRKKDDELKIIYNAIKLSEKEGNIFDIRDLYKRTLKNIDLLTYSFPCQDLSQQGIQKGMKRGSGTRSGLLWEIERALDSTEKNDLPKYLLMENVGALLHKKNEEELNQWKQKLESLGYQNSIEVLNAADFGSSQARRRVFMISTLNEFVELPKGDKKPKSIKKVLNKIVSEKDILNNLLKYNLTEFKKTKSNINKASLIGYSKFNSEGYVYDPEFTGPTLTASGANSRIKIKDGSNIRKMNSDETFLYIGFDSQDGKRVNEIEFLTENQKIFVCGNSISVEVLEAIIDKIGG", "method": "(§1) Assays (0.1 ml) were conducted in 96-well black half-area plates in either a Wallac VICTOR2 or Biotek Synergy Neo plate reader at 37 °C in 10 mM Tris, pH 7.5, 100 mM potassium glutamate, 1 mM MgCl2, 1 mM DTT, 0.1 mg/ml BSA, and 5% glycerol. […] Data were fitted using Prism (GraphPad Software, Inc)."}, "[2]": {"molecular_target": "T1, DNA (cytosine-5)-methyltransferase 1 [351-1600] (Homo sapiens, UniProt P26358)", "T1 construct": "351-1600", "T1 sequence (P26358 351-1600)": "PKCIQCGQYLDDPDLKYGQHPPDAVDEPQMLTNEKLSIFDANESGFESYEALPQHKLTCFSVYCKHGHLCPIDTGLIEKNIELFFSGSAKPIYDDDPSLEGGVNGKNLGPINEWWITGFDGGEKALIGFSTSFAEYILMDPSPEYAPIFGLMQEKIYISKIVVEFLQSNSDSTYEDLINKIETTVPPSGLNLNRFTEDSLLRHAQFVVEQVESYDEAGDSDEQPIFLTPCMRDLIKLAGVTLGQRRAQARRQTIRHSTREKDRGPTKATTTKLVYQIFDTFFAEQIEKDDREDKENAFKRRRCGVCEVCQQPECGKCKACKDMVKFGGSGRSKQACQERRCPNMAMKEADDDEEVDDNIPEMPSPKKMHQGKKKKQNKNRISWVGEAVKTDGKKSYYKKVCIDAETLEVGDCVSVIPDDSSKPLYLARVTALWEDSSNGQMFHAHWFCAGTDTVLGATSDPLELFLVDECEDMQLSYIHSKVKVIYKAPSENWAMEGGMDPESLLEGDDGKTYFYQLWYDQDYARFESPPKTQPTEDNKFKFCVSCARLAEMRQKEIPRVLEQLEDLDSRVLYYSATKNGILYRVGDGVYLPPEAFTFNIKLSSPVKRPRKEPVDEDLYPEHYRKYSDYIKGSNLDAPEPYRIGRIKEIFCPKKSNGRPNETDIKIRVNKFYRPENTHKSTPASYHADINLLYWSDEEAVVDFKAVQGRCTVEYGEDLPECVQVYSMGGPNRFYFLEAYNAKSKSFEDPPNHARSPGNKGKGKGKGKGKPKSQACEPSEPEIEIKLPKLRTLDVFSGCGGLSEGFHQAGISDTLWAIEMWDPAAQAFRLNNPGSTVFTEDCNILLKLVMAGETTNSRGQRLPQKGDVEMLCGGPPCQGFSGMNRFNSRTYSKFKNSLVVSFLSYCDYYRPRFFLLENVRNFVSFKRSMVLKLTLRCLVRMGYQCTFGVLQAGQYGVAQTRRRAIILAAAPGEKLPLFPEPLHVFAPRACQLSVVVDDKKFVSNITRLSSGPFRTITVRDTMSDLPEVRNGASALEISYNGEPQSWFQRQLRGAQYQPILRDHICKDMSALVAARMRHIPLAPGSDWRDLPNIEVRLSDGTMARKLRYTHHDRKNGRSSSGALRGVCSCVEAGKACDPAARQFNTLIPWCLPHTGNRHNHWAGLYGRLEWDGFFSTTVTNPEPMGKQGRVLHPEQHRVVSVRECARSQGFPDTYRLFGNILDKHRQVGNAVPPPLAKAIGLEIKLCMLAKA", "method": "as §1"}, "[3]": {"molecular_target": "T2, DNA (cytosine-5)-methyltransferase 3A [590-912] (Homo sapiens, UniProt Q9Y6K1)", "T2 construct": "590-912", "T2 sequence (Q9Y6K1 590-912)": "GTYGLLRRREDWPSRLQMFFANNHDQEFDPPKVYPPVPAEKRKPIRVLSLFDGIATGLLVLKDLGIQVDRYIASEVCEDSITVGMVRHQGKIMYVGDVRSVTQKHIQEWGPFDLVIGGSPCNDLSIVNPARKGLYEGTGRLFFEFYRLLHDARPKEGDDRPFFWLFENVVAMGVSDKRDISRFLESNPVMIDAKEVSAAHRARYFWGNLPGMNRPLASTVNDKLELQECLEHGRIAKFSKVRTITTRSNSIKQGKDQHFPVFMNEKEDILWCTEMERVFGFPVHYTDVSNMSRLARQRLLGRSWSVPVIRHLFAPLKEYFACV", "method": "as §1"}},
  "data": [
    {"smiles": "CC(=O)NCCc1ccc(O)c(-c2c(O)c(O)c3c(c2O)C(=O)c2c(cc(O)c(C(=O)O)c2C(=O)O)C3=O)c1", "values": [
      {"measurement": "IC50", "setting": "[1]", "result": 53.6, "unit": "µM"},
      {"measurement": "IC50", "setting": "[2]", "result": 19.1, "unit": "µM"},
      {"measurement": "IC50", "setting": "[3]", "result": 50.5, "unit": "µM"}
    ]}
  ]
}
